Where no end group is shown, it is not given here.
What was measured:
Drp1/ATAD3A = target: T1, Drp1/ATAD3A (Mus musculus, UniProt Q925I1); test: Immunoprecipitation of Drp1/ATAD3A binding in mouse striatal cells; type: cell-based
T1 construct: The total lysates of cells or mouse striatum were subject to IP analysis; endogenous in cells; host or cells: HdhQ7 / HdhQ111 mouse striatal cells; wild-type mouse striatal cells exposed to 3-NP
T1 sequence (Q925I1 2-591 limits assumed): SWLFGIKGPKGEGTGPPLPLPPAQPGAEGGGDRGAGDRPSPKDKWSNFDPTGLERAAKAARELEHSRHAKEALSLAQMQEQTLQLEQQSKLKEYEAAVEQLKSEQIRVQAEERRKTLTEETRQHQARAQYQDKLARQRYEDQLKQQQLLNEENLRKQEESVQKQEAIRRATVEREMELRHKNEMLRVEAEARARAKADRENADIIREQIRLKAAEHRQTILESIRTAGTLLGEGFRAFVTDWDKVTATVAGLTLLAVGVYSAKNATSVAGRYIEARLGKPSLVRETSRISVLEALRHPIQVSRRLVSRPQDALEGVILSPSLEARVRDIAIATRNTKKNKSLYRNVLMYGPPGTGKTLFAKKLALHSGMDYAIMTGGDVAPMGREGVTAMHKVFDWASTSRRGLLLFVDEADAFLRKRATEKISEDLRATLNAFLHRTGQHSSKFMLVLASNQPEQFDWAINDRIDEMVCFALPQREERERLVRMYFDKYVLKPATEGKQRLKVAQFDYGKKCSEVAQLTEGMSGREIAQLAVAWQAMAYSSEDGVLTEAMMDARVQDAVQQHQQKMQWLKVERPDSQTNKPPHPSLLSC
Protocol: Cells and mouse brain tissues were harvested and lysed in total lysis buffer ([…], pH 7.9, […], […], 1% Triton X-100, and protease inhibitor cocktail) for 30 mins on ice and centrifuged at 12,000×g for 10 min at 4° C. The supernatants were incubated with the indicated primary antibodies or control IgG (sc-2025 and sc-2027, Santa Cruz Biotechnology) overnight at 4° C., followed by incubation with protein A/G beads (sc-2003, Santa Cruz Biotechnology) for 2 h at 4° C. The immunoprecipitates were washed with lysis buffer three times for a total of 30 min and then subject to WB analysis.

[1] = system: Drp1 with its mitochondrial adaptors Mff, Fis1 and MIEF1; test: Immunoprecipitation of Drp1 with mitochondrial adaptors after crosslinking; type: cell-based, mouse; conditions: HdhQ111 cells, 1 μM/day for 4 days
Protocol: For Drp1-Mff or Drp-MiD51 (MIEF1) interaction, the cells were cross-linked by […] for 10 min at r.t., then […] in PBS was added to quench the redundant DSP activity. For Drp1-Fis1 interaction, the cells were cross-linked by 1% FA for 20 min at r.t., then added […] in PBS to quench the redundant activity. The cells were washed with PBS, sonicated, and lysed with 1% Triton X-100 total lysis buffer.

HdhQ111 cells = test: Mitochondrial morphology (anti-Tom20 staining) in striatal cells; type: cell-based, mouse; conditions: 1 μM/day for 4 days, relative to TAT
Protocol: Mouse striatal cell lines HdhQ7 and Q111 cells are immortalized from knock-in mice carrying 7 and 111 CAG repeats, respectively, in the mouse htt gene. HdhQ7 and HdhQ111 purchased from CHDI Foundation were cultured in DMEM supplemented with 10% (v/v) heat-inactivated FBS, 1% (v/v) penicillin/streptomycin, and 400 μg/ml G418 at 33° C. with 5% CO2. Cells within 14 passages were used in all experiments.
Cells grown on coverslips were fixed with 4% paraformaldehyde for 20 mins at r.t., permeabilized with 0.1% Triton X-100 in PBS and blocked with 2% normal goat serum. The cells were then incubated with primary antibody (overnight, at 4° C.) followed by Alexa Fluor 568 or 488 secondary antibody (2 h, r.t.). After staining with Nuclei with Hoechst dye (1:10,000 dilution), the cells were mounted onto slides. The cells were imaged by Fluoview FV1000 microscopy (Olympus).

TFAM and mtDNA LSP = test: TFAM-mtDNA binding assay (biotin-streptavidin pull down); type: cell-based, mouse; conditions: HdhQ111 cells, relative to TAT
Protocol: Total lysates were isolated from cells with the indicated treatments, and then incubated with biotinylated LSP DNA probe (Biotin-LSP) or LSP (control) overnight at 4° C. Then streptavidin agarose beads (Thermo Fisher Scientific) were added for 1 h at 4° C. After incubation, the biotinstreptavidin complex was washed 3-5 times (1 ml/time) at 4° C. and subject to western blot analysis. To validate the LSP binding specificity to TFAM, 10 times (molar ratio) of non-labeled LSP was pre-incubated with an equal amount of lysate for 2 h prior to addition of the biotin-LSP probe.

HD R6/2 mice = test: Striatal neuropathology in R6/2 mice (DARPP-32 immunohistochemistry, Golgi-Cox staining, striatum volume); type: in vivo, mouse
Protocol: Mice were deeply anesthetized and transcardially perfused with 4% paraformaldehyde in PBS. Brains were processed for paraffin embedment. Brain sections (10 μm, coronal) were used for immunohistochemical localization of DARPP-32 (1:500, Abcam) or ATAD3A (1:200, Genetex) using the IHC Select HRP/DAB kit (Millipore). Quantitation of DARPP-32 immunostaining was conducted using NIH image J software. The same image exposure times and threshold settings were used for sections from all treatment groups. An experimenter blinded to the experimental groups conducted the quantitation.
Coronal sections (10 μm) spaced 200 μm apart throughout the striatum will be stained with anti-NeuN (Sigma, MAB377, 1:200 dilution) antibody followed by secondary antibodies and detection with diaminobenzidine (DAB, Pierce). The perimeter of the striatum will be traced in each of the serial sections using a ×2 objective. For the volume estimation, consecutive sections (an average of 10-15 sections/animal) will be visualized and the perimeter of the striatum will be outlined. The striatal volume will be estimated by multiplying the sum of all the sectional areas (mm2) by the distance between successive sections (200 μm).
Dendrite morphology of medium spiny neurons in wildtype and HD R6/2 mice was analyzed by Golgi-Cox staining using Novaultra Golgi-Cox Stain Kit (IHCWorld, SKU IW-3023). Briefly, mice were deeply anesthetized and transcardially perfused with 4% paraformaldehyde in PBS. After thoroughly washing with PBS overnight, mouse brains were immersed in the Golgi-Cox solution in dark at room temperature, then replaced with fresh Golgi-Cox Solution after 2 days of immersion and continued the impregnation at room temperature in dark for 14 days following the manufactory instruction. After washing with PBS for 2 days, serial coronal sections of 200 μm thick were cut on Vibratome Series 1000 Sectioning System. […] Total dendritic length per neuron was measured using NIH Image J plug-in simple neurite tracer.

YGRKKRRQRRRGGEDKRKT-NH2 [DA1, YGRKKRRQRRR-GG-EDKRKT-NH2]
binding of Drp1/ATAD3A (Drp1/ATAD3A; HdhQ111 cells, peptide 1 μM/day for 4 days, vs TAT): significantly reduced
binding of Drp1/ATAD3A (Drp1/ATAD3A; wildtype mouse striatal cells exposed to 3-NP (5 mM for 4 hours), DA1 1 μM overnight): significantly reduced
interactions of Drp1 with its mitochondrial adaptors Mff, Fis1 and MIEF1 [1]: did not influence
number of cells with fragmented mitochondria (HdhQ111 cells): reduced
binding of TFAM and mtDNA (TFAM and mtDNA LSP): restored
dendritic morphology of MSN (Golgi-Cox staining) (HD R6/2 mice): improved
striatum volume (HD R6/2 mice): increased
area occupied by DARPP-32-immunostained cells in the striatum (HD R6/2 mice; 12 weeks old): increased
